How the values were obtained:
[1] = target: T1, Tyrosine-protein kinase receptor TYRO3 (Homo sapiens, UniProt Q06418)
T1 sequence (Q06418 whole entry): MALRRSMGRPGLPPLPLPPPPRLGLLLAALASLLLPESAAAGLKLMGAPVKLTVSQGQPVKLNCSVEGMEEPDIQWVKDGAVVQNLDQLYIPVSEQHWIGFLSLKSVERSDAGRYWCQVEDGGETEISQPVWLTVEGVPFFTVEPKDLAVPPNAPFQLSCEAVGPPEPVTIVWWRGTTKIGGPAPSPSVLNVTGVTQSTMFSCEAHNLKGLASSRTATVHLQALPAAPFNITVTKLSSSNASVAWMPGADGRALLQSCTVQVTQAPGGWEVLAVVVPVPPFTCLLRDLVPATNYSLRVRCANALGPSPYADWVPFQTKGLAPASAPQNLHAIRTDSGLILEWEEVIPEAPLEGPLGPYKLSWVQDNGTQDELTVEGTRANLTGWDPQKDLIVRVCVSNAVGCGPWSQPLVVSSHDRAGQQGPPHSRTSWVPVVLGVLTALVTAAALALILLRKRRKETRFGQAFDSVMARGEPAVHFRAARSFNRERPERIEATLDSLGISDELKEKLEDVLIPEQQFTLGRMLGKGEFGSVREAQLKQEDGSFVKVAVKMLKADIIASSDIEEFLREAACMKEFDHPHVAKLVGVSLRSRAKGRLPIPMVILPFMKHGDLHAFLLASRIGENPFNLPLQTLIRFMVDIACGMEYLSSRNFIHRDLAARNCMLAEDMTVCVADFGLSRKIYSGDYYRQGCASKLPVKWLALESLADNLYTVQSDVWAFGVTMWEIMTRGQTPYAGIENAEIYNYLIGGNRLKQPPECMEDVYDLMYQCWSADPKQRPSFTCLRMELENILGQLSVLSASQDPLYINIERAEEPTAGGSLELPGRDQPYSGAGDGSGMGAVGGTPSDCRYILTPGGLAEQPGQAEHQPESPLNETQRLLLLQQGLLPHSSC

[2] = target: T2, Tyrosine-protein kinase receptor UFO (Homo sapiens, UniProt P30530)
T2 sequence (P30530 whole entry): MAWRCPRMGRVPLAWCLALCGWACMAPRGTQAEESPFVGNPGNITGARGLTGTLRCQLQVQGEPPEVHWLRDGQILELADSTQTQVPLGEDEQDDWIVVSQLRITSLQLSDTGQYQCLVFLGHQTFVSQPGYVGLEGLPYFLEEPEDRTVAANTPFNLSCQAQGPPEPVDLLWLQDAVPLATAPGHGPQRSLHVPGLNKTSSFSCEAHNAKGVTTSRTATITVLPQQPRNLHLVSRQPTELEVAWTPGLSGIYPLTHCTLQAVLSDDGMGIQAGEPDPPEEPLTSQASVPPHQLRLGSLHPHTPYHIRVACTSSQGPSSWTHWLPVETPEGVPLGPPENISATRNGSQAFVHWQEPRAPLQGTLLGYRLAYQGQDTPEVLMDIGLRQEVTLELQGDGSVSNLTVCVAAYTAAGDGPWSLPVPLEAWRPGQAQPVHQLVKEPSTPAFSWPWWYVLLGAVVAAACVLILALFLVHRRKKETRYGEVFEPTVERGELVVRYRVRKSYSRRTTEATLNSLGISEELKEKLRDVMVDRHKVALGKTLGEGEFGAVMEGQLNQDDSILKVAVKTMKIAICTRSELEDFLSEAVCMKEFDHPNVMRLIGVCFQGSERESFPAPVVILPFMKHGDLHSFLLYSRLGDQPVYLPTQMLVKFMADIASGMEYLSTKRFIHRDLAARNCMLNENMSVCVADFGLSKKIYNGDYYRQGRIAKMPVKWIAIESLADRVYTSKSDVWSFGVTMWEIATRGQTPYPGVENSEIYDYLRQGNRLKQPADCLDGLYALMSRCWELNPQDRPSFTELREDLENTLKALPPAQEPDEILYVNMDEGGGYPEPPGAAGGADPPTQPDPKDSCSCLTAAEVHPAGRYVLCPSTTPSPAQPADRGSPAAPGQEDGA

Mus musculus = species: Mus musculus; settings: in vivo, po, 3 mg/kg
in vivo [3] = settings: mouse, po, 3 mg/kg
in vivo [4] = settings: mouse, po, 3 mg/kg; remark: listed apart in the source
in vivo [5] = settings: mouse, po, 3 mg/kg; remark: listed apart in the source
in vivo [6] = settings: mouse, iv, 3 mg/kg
in vivo [7] = settings: mouse, iv, 3 mg/kg; remark: listed apart in the source
in vivo [8] = settings: mouse, iv, 3 mg/kg; remark: listed apart in the source
in vivo [9] = settings: mouse, iv, 3 mg/kg; remark: listed apart in the source
in vivo [10] = settings: mouse, iv, 3 mg/kg; remark: listed apart in the source

| SMILES | IC50 [1] | IC50 [2] | F (Mus musculus) | AUC(0-t) (in vivo [3]) | Cmax (in vivo [4]) | Tmax (in vivo [5]) | Vd (in vivo [6]) | clearance (in vivo [7]) | Cmax (in vivo [8]) | AUC(0-t) (in vivo [9]) | half-life (in vivo [10]) |
| --- | --- | --- | --- | --- | --- | --- | --- | --- | --- | --- | --- |
| CSc1ncc(-c2ccccn2)c(N[C@H]2CC[C@H](O)CC2)n1 | > 30 µM | > 30 µM | – | – | – | – | – | – | – | – | – |
| O[C@H]1CC[C@H](Nc2nc(NCc3ccccc3)ncc2-c2ccccn2)CC1 | – | > 30 µM | – | – | – | – | – | – | – | – | – |
| CCCCNc1ncc(-c2ccc(CN3CCC(F)(F)CC3)cn2)c(N[C@H]2CC[C@H](O)CC2)n1 | – | – | 55% | 210 ng·h/mL | 71 ng/mL | 15 min | 13.7 L/kg | 123 mL/min/kg | 737 ng/mL | 381 ng·h/mL | 178 min |
| CCCCNc1ncc(-c2ccc(S(=O)(=O)N3CCOCC3)cn2)c(N[C@H]2CC[C@H](O)CC2)n1 | – | – | 1.3% | 4.68 ng·h/mL | 13.9 ng/mL | 15 min | 2.9 L/kg | 134 mL/min/kg | 1980 ng/mL | 355 ng·h/mL | 54.6 min |

Other lines, results leading:

| IC50 [1] | IC50 [2] | F (Mus musculus) | AUC(0-t) (in vivo [3]) | Cmax (in vivo [4]) | Tmax (in vivo [5]) | Vd (in vivo [6]) | clearance (in vivo [7]) | Cmax (in vivo [8]) | AUC(0-t) (in vivo [9]) | half-life (in vivo [10]) | SMILES |
| --- | --- | --- | --- | --- | --- | --- | --- | --- | --- | --- | --- |
| – | – | 27% | 103 ng·h/mL | 33 ng/mL | 30 min | 39 L/kg | 130 mL/min/kg | 277 ng/mL | 376 ng·h/mL | 283 min | CCCCNc1ncc(-c2ccc(CNC3CC3)cn2)c(N[C@H]2CC[C@H](O)CC2)n1 |
| > 30 µM | – | – | – | – | – | – | – | – | – | – | CCCCNc1ncc(-c2ccc(F)cc2)c(N[C@H]2CC[C@H](O)CC2)n1 |
| > 30 µM | > 30 µM | – | – | – | – | – | – | – | – | – | CCCCNc1nccc(N[C@H]2CC[C@H](O)CC2)n1 |
| – | – | 23% | 180 ng·h/mL | 162 ng/mL | 15 min | 3.9 L/kg | 62.2 mL/min/kg | 1980 ng/mL | 794 ng·h/mL | 95.4 min | CCCCNc1ncc(-c2ccc(CN3CCOCC3)cn2)c(N[C@H]2CC[C@H](O)CC2)n1 |
